Measured values: PubChem BioAssay (NCI)
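The compound was tested at five concentrations on cells cultured in 96-well plates, with a 48-hour exposure period. TGI denotes the concentration required for complete inhibition of growth.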

Legend:
Experiment in all cases: growth of human tumour cells (NCI), 48 h
[1] = tested on: 786-0 renal
[2] = tested on: A498 renal
[3] = tested on: A549 NSCLC
[4] = tested on: ACHN renal
[5] = tested on: BT-549 breast
[6] = tested on: CAKI-1 renal
[7] = tested on: CCRF-CEM leukemia
[8] = tested on: COLO 205 colon
[9] = tested on: DU-145 prostate
[10] = tested on: EKVX NSCLC
[11] = tested on: HCC-2998 colon
[12] = tested on: HCT-116 colon
[13] = tested on: HCT-15 colon
[14] = tested on: HL-60(TB) leukemia
[15] = tested on: HOP-62 NSCLC
[16] = tested on: HOP-92 NSCLC
[17] = tested on: HS 578T breast
[18] = tested on: HT29 colon
[19] = tested on: IGROV1 ovarian
[20] = tested on: K-562 leukemia
[21] = tested on: KM12 colon
[22] = tested on: LOX IMVI melanoma
[23] = tested on: M14 melanoma
[24] = tested on: MALME-3M melanoma
[25] = tested on: MCF7 breast
[26] = tested on: MDA-MB-231 breast
[27] = tested on: MDA-MB-435
[28] = tested on: MDA-N
[29] = tested on: MOLT-4 leukemia
[30] = tested on: NCI-H226 lung
[31] = tested on: NCI-H23 lung
[32] = tested on: NCI-H460 lung
[33] = tested on: NCI-H522 lung
[34] = tested on: NCI/ADR-RES ovarian
[35] = tested on: OVCAR-3 ovarian
[36] = tested on: OVCAR-4 ovarian
[37] = tested on: OVCAR-5 ovarian
[38] = tested on: OVCAR-8 ovarian
[39] = tested on: PC-3 prostate
[40] = tested on: RPMI-8226 leukemia
[41] = tested on: RXF 393 renal
[42] = tested on: SF-268 CNS
[43] = tested on: SF-295 CNS
[44] = tested on: SF-539 CNS
[45] = tested on: SK-MEL-2 melanoma
[46] = tested on: SK-MEL-28 melanoma
[47] = tested on: SK-MEL-5 melanoma
[48] = tested on: SK-OV-3 ovarian
[49] = tested on: SN12C renal
[50] = tested on: SNB-19 CNS
[51] = tested on: SNB-75 CNS
[52] = tested on: SR leukemia
[53] = tested on: SW-620 colon
[54] = tested on: T-47D breast
[55] = tested on: TK-10 renal
[56] = tested on: U251 CNS
[57] = tested on: UACC-257 melanoma
[58] = tested on: UACC-62 melanoma
[59] = tested on: UO-31 renal

O=C1C(N2CCOCC2)=C(Cl)C(=O)c2ncccc21
TGI [1]: 3.24 µM
TGI [2]: > 10 µM
TGI [3]: > 10 µM
TGI [4]: 3.49 µM
TGI [5]: > 10 µM
TGI [6]: > 10 µM
TGI [7]: 2.16 µM
TGI [8]: 3.91 µM
TGI [9]: > 10 µM
TGI [10]: > 10 µM
TGI [11]: > 9.5 µM
TGI [12]: 3.1 µM
TGI [13]: 4.11 µM
TGI [14]: 0.534 µM
TGI [15]: > 10 µM
TGI [16]: 2.84 µM
TGI [17]: > 10 µM
TGI [18]: > 10 µM
TGI [19]: > 10 µM
TGI [20]: 5.03 µM
TGI [21]: > 5.35 µM
TGI [22]: 4.92 µM
TGI [23]: 4.97 µM
TGI [24]: 3.45 µM
TGI [25]: 3.59 µM
TGI [26]: 5.24 µM
TGI [27]: 3.22 µM
TGI [28]: 3.48 µM
TGI [29]: 3.19 µM
TGI [30]: > 10 µM
TGI [31]: 3.55 µM
TGI [32]: > 10 µM
TGI [33]: 2.85 µM
TGI [34]: > 10 µM
TGI [35]: 3.39 µM
TGI [36]: 2.89 µM
TGI [37]: > 10 µM
TGI [38]: > 5.73 µM
TGI [39]: > 10 µM
TGI [40]: 4.34 µM
TGI [41]: 2.91 µM
TGI [42]: > 7.37 µM
TGI [43]: > 10 µM
TGI [44]: > 10 µM
TGI [45]: 3.77 µM
TGI [46]: 4.67 µM
TGI [47]: 3.26 µM
TGI [48]: > 10 µM
TGI [49]: 3.15 µM
TGI [50]: > 10 µM
TGI [51]: > 10 µM
TGI [52]: 2.2 µM
TGI [53]: 3.72 µM
TGI [54]: 3.92 µM
TGI [55]: 4.71 µM
TGI [56]: > 10 µM
TGI [57]: 3.52 µM
TGI [58]: 5.51 µM
TGI [59]: > 5.86 µM

CCN(CC)CCCNc1[nH]ncc2cc3c(nc4ccc(OC)cc43)c(C)c12
TGI [1]: 15.4 µM
TGI [2]: 30.7 µM
TGI [3]: 22.2 µM
TGI [4]: 20.9 µM
TGI [5]: 30.9 µM
TGI [6]: 24.7 µM
TGI [7]: 16.5 µM
TGI [8]: 21.2 µM
TGI [9]: 15.9 µM
TGI [10]: 31.4 µM
TGI [11]: 18.8 µM
TGI [12]: 13 µM
TGI [13]: 41.3 µM
TGI [14]: 0.0166 µM
TGI [15]: 16.4 µM
TGI [16]: 29.8 µM
TGI [17]: 28.5 µM
TGI [18]: 16.2 µM
TGI [19]: 19.5 µM
TGI [20]: 16.3 µM
TGI [21]: 15.7 µM
TGI [22]: 15.8 µM
TGI [23]: 25.6 µM
TGI [24]: 28.3 µM
TGI [25]: 16.6 µM
TGI [26]: 21.2 µM
TGI [27]: 23.1 µM
TGI [28]: 22.3 µM
TGI [29]: 10.9 µM
TGI [30]: 22.6 µM
TGI [31]: 24.6 µM
TGI [32]: 17 µM
TGI [33]: 17.4 µM
TGI [34]: > 100 µM
TGI [35]: 19.1 µM
TGI [36]: 13.8 µM
TGI [37]: 24.8 µM
TGI [38]: 18.9 µM
TGI [39]: 16.5 µM
TGI [40]: 46.8 µM
TGI [41]: 17.7 µM
TGI [42]: > 48.1 µM
TGI [43]: 25.7 µM
TGI [44]: 15.2 µM
TGI [45]: 33.9 µM
TGI [46]: 30.8 µM
TGI [47]: 29.4 µM
TGI [48]: 22.3 µM
TGI [49]: 18.7 µM
TGI [50]: 18 µM
TGI [51]: 23 µM
TGI [52]: 33.1 µM
TGI [53]: 19.4 µM
TGI [54]: 26.5 µM
TGI [55]: 28.8 µM
TGI [56]: 16 µM
TGI [57]: 33.7 µM
TGI [58]: 35.8 µM
TGI [59]: 23.8 µM

CC(C)NC(=O)OCc1c(COC(=O)NC(C)C)c(-c2ccc[n+](COC(=O)C(C)C)c2)n2c1CCC2
TGI [1]: > 100 µM
TGI [2]: 61.2 µM
TGI [3]: > 100 µM
TGI [4]: > 100 µM
TGI [5]: > 100 µM
TGI [6]: 74.2 µM
TGI [7]: > 91.2 µM
TGI [8]: > 100 µM
TGI [9]: > 100 µM
TGI [10]: > 100 µM
TGI [11]: > 100 µM
TGI [12]: > 100 µM
TGI [13]: > 100 µM
TGI [14]: > 59.4 µM
TGI [15]: > 100 µM
TGI [16]: > 94.6 µM
TGI [17]: > 100 µM
TGI [18]: > 100 µM
TGI [19]: > 100 µM
TGI [20]: > 100 µM
TGI [21]: > 100 µM
TGI [22]: > 100 µM
TGI [23]: > 100 µM
TGI [24]: > 100 µM
TGI [25]: > 100 µM
TGI [26]: > 100 µM
TGI [27]: > 100 µM
TGI [28]: > 100 µM
TGI [29]: > 79.3 µM
TGI [30]: > 100 µM
TGI [31]: > 100 µM
TGI [32]: > 100 µM
TGI [33]: 91.4 µM
TGI [34]: > 100 µM
TGI [35]: > 100 µM
TGI [36]: > 100 µM
TGI [37]: > 100 µM
TGI [38]: > 100 µM
TGI [39]: > 100 µM
TGI [40]: > 100 µM
TGI [41]: > 89.6 µM
TGI [42]: > 100 µM
TGI [43]: > 100 µM
TGI [44]: > 83.3 µM
TGI [45]: > 100 µM
TGI [46]: > 100 µM
TGI [47]: > 100 µM
TGI [48]: > 100 µM
TGI [49]: > 100 µM
TGI [50]: > 100 µM
TGI [51]: > 100 µM
TGI [52]: 97.4 µM
TGI [53]: > 100 µM
TGI [54]: > 100 µM
TGI [55]: > 100 µM
TGI [56]: > 100 µM
TGI [57]: > 100 µM
TGI [58]: > 100 µM
TGI [59]: > 100 µM

Nc1cccc(C2CCCc3c2[nH]c2ccccc32)c1 (stereo unspecified)
TGI [1]: 41.5 µM
TGI [2]: 28.9 µM
TGI [3]: 47.7 µM
TGI [4]: 76.8 µM
TGI [5]: 41.9 µM
TGI [6]: 69.2 µM
TGI [7]: 57 µM
TGI [8]: 43.6 µM
TGI [9]: > 100 µM
TGI [10]: 67.5 µM
TGI [11]: 61 µM
TGI [12]: 34 µM
TGI [13]: 40.5 µM
TGI [14]: 43 µM
TGI [15]: > 100 µM
TGI [16]: 42.7 µM
TGI [17]: 43.7 µM
TGI [18]: 33.4 µM
TGI [19]: 39.8 µM
TGI [20]: 48.7 µM
TGI [21]: 49.8 µM
TGI [22]: 25.4 µM
TGI [23]: 62.4 µM
TGI [24]: 48.3 µM
TGI [25]: 54.7 µM
TGI [26]: 37 µM
TGI [27]: 41.1 µM
TGI [28]: 37.4 µM
TGI [29]: 54.1 µM
TGI [30]: 47.9 µM
TGI [31]: 46.4 µM
TGI [32]: 73.6 µM
TGI [33]: 34.1 µM
TGI [34]: 38.8 µM
TGI [35]: > 100 µM
TGI [36]: > 100 µM
TGI [37]: 45.8 µM
TGI [38]: 34.8 µM
TGI [39]: 53.9 µM
TGI [40]: 56.6 µM
TGI [41]: 39.3 µM
TGI [42]: 56.4 µM
TGI [43]: 64.5 µM
TGI [44]: 40.6 µM
TGI [45]: 37.8 µM
TGI [46]: > 100 µM
TGI [47]: 33.1 µM
TGI [48]: 70.4 µM
TGI [49]: 32.7 µM
TGI [50]: 72.7 µM
TGI [51]: 36.1 µM
TGI [52]: 31.4 µM
TGI [53]: 42.6 µM
TGI [54]: 54.7 µM
TGI [55]: > 100 µM
TGI [56]: 28.9 µM
TGI [57]: 69.1 µM
TGI [58]: 31.1 µM
TGI [59]: > 100 µM
